Patent publication US11034700B2, “Substituted pyrrolidine compound and use thereof” (Takeda Pharmaceutical Company Limited, priority 2017, dated 2021)

Each compound was assayed against T1, human OX2 receptor (Homo sapiens, UniProt O43614) (assay: Measurement of orexin type 2 receptor agonist activity (Fluo-4 calcium fluorescence, FDSS)). Conditions: compound at 3 μM; CHO cells forcibly expressing human OX2 receptor; DMSO = 0%, orexin A (human) 10 nM = 100%.
T1 construct: expressed in transfected cells
T1 sequence (O43614 1-444): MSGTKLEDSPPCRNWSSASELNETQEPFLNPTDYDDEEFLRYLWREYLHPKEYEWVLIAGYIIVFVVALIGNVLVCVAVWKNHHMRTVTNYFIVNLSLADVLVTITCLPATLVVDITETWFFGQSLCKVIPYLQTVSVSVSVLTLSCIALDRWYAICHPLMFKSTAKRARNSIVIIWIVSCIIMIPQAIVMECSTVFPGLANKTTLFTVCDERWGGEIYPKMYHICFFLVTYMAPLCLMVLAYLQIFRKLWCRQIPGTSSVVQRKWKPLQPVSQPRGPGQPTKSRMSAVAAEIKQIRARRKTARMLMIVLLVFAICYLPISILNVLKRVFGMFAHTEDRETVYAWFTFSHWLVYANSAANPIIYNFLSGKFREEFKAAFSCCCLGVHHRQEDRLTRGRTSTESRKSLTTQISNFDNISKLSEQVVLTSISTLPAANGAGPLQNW
Format: cell-based
Description: Experimental Example 1: Obtainment of Cell Stably Expressing Human Orexin Type 2 Receptor (hOX2R)
To obtain a cell clone stably expressing human orexin type 2 receptor, human orexin type 2 receptor cDNA was inserted into pcDNA3.1(+) plasmid vector (Invitrogen), and a plasmid DNA for expression of human orexin type 2 receptor (pcDNA3.1(+)/hOX2R) was cloned. The plasmid DNA was introduced into CHO-dhfr cell by an electroporation method, and human orexin type 2 receptor expressing clone cells were obtained by limiting dilution method by using G418 drug resistance as a selection marker.
Experimental Example 2: Measurement of Orexin Type 2 Receptor Agonist Activity
CHO cells forcibly expressing human OX2 receptor were seeded in each well of 384 well black transparent bottom plate (BD Falcon) at 7,500 cells/well, and cultured for one day in a 5% CO2 incubator at 37° C. After removal of the medium in the cell plate, assay buffer A containing a calcium indicator (HESS (Life Technologies), 20 mM HEPES (Life Technologies), 0.1% BSA (Wako Pure Chemical Industries, Ltd.), 2.5 μg/mL Fluo-4 AM (DOJINDO Chemical), 0.08% Pluronic F127 (DOJINDO Chemical), 1.25 mM probenecid (DOJINDO Chemical)) was added at 30 μL/well. The plate was stood for 30 min in a 5% CO2 incubator at 37° C., and further stood at room temperature for 30 min. A test compound prepared by diluting with assay buffer B (HESS, 20 mM HEPES, 0.1% BSA) was added at 10 μL/well, and the fluorescence value was measured by FDSSμCELL (Hamamatsu Photonics K.K.) every one sec for 1 min, and thereafter every two sec for 1 min 40 sec. The activity (%) of the test compound was calculated assuming that variation in the fluorescence value when DMSO was added instead of the test compound was 0% […], and variation in the fluorescence value when orexin A (human) (PEPTIDE INSTITUTE, INC.) was added at the final concentration of 10 nM was 100% […]. The activity of each compound at the concentration of 3 μM was shown below.

OX2R agonist activity (3 μM, %) [%] | Structure (SMILES)
101 | COc1ccccc1S(=O)(=O)Nc1cccc(O[C@@H]2CN(C(=O)c3cc(C)ccc3C)C[C@H]2OC)c1 (relative stereo) [Example 56, trans-N-(3-((1-(2,5-dimethylbenzoyl)-4-methoxypyrrolidin-3-yl)oxy)phenyl)-2-methoxybenzenesulfonamide]
103 | COc1ccc(-c2cccc(C(=O)N(C)C)c2)cc1S(=O)(=O)Nc1cccc(O[C@@H]2CN(C(=O)c3cc(C)ccc3C)C[C@@H]2OC)c1 (relative stereo) [Example 59, cis-3′-((3-((1-(2,5-dimethylbenzoyl)-4-methoxypyrrolidin-3-yl)oxy)phenyl)sulfamoyl)-4′-methoxy-N,N-dimethylbiphenyl-3-carboxamide]
105 | COc1ccc(-c2cccc(C(=O)N(C)C)c2)cc1S(=O)(=O)Nc1cccc(O[C@@H]2CN(C(=O)c3cc(C)ccc3C)C[C@H]2OC)c1 (relative stereo) [Example 60, trans-3′-((3-((1-(2,5-dimethylbenzoyl)-4-methoxypyrrolidin-3-yl)oxy)phenyl)sulfamoyl)-4′-methoxy-N,N-dimethylbiphenyl-3-carboxamide]
78 | CO[C@@H]1CN(C(=O)c2cc(C)ccc2C)C[C@H]1Oc1cccc(NS(=O)(=O)c2ccccc2)c1 (relative stereo) [Example 65, trans-N-(3-((1-(2,5-dimethylbenzoyl)-4-methoxypyrrolidin-3-yl)oxy)phenyl)benzenesulfonamide]
76 | CCCS(=O)(=O)Nc1cccc(O[C@@H]2CN(C(=O)c3cc(C)ccc3C)C[C@H]2OC)c1 (relative stereo) [Example 66, trans-N-(3-((1-(2,5-dimethylbenzoyl)-4-methoxypyrrolidin-3-yl)oxy)phenyl)propane-1-sulfonamide]
80 | COc1ccccc1S(=O)(=O)Nc1ccc(F)c(O[C@@H]2CN(C(=O)c3cc(C)ccc3C)C[C@H]2OC)c1 (relative stereo) [Example 86, trans-N-(3-((1-(2,5-dimethylbenzoyl)-4-methoxypyrrolidin-3-yl)oxy)-4-fluorophenyl)-2-methoxybenzenesulfonamide]
103 | COc1ccccc1S(=O)(=O)Nc1cccc(O[C@@H]2CN(C(=O)c3cc(C)ccc3C)C[C@H]2OC)c1F (relative stereo) [Example 87, trans-N-(3-((1-(2,5-dimethylbenzoyl)-4-methoxypyrrolidin-3-yl)oxy)-2-fluorophenyl)-2-methoxybenzenesulfonamide]
102 | COc1ccccc1S(=O)(=O)Nc1cccc(O[C@@H]2CN(C(=O)c3cc(C)ccc3C)C[C@H]2C)c1 (relative stereo) [Example 92, trans-N-(3-((1-(2,5-dimethylbenzoyl)-4-methylpyrrolidin-3-yl)oxy)phenyl)-2-methoxybenzenesulfonamide]
80 | CC[C@@H]1CN(C(=O)c2cc(C)ccc2C)C[C@H]1Oc1cccc(NS(=O)(=O)c2ccccc2OC)c1 (relative stereo) [Example 93, trans-N-(3-((1-(2,5-dimethylbenzoyl)-4-ethylpyrrolidin-3-yl)oxy)phenyl)-2-methoxybenzenesulfonamide]
102 | COc1ccccc1S(=O)(=O)Nc1cc(F)cc(O[C@@H]2CN(C(=O)c3cc(C)ccc3C)C[C@H]2OC)c1 (relative stereo) [Example 100, trans-N-(3-((1-(2,5-dimethylbenzoyl)-4-methoxypyrrolidin-3-yl)oxy)-5-fluorophenyl)-2-methoxybenzenesulfonamide]
95 | COc1ccccc1S(=O)(=O)Nc1ccnc(O[C@@H]2CN(C(=O)c3cc(C)ccc3C)C[C@H]2OC)c1 (relative stereo) [Example 101, trans-N-(2-((1-(2,5-dimethylbenzoyl)-4-methoxypyrrolidin-3-yl)oxy)pyridin-4-yl)-2-methoxybenzenesulfonamide]
